# Reference: patent publication US8765705B2, “Oligonucleotides inhibiting cellular migration” (Centre National de la Recherche Scientifique, priority 2009, dated 2014)
# “Also recorded” adds a separate entry of the source. d = 2'-deoxy (DNA); r = 2'-OH (RNA)
# Key:
# TSP1 [1] = assay: TSP1 secretion in the culture medium of C4-2 cells (western blotting); format: cell-based, human; conditions: 2 h treatment
# Protocol: FIG. 2B represents TSP1 secretion in the cell culture medium by C4-2 cells treated for 2 h by vehicle (left) or thapsigargin (1 μM) (right). The secreted TSP1 is measured by western blotting in the cell culture medium. FIG. 2D represents TSP1 secretion in the cell culture medium by C4-2 cells treated for 2 h by vehicle or camphor at the indicated doses. The secreted TSP1 is measured by western blotting in the cell culture medium. FIG. 3D represents Western blot detection of TSP1 in the culture medium of C4-2 cells transfected with cont- or TSP1-siRNA 48 h after transfection.
# TSP1 mRNA = TSP1 mRNA level in C4-2 cells, real-time RT-PCR normalized to cyclophilin A; format: cell-based, human
# Protocol: (§1) LNCaP and C4-2 cells were grown in RMPI containing 10% fetal calf serum, PC-3 cells in DMEM containing 10% fetal calf serum. The Hiperfect reagent (Qiagen, Courtaboeuf, France) was used to transfect cells in 24 wells plates with the indicated siRNAs (10 nM) as recommended by the manufacturer. A metabolic activity assay (WST1, Roche Diagnostics, Meylan France) was used to measure cell proliferation. To mimic hypoxia, cells were grown in the presence of 300 μM cobalt chloride for 48 h. For hypoxic conditions, cells were cultured at 37° C. with 5% CO2, 94% N2 and 1% O2 in a hypoxic incubator (Binder GmbH, Tuttligen, France).
# (§2) Total RNA was isolated using TRIzol reagent (Invitrogen, Cergy Pontoise, France). RNA were retrotranscribed using a High capacity cDNA Reverse Transcription Kit (Applied Biosystems, Courtaboeuf, France). cDNA was quantified by real time PCR using the Power SYBR® Green PCR Master Mix (Applied Biosystems, Courtaboeuf, France). Human Cyclophilin A was used as an internal control. The sequences of the PCR primers are indicated in the supplementary table 2.
# TRPV3 mRNA = TRPV3 mRNA level in C4-2 cells, real-time RT-PCR; format: cell-based, human; conditions: 48 h, 300 μM
# Protocol: as §1, §2
# TSP1 [2] = assay: TSP1 expression in PC3 cells exposed to CoCl2; format: cell-based, human
# Protocol: FIG. 4G represents the induction of VEGF (grey) and TSP1 (black) mRNA levels normalized to cyclophilin A levels in PC3 cells grown for the indicated periods in cobalt chloride as compared to the respective mRNA levels in control medium at the same time point.
# FIG. 4H represents TSP1 immunodetection in PC3 cells grown for 48 h in control conditions (N) or in the presence of 300 μM CoCl2 to mimic hypoxia (H).
# as §1
# C4-2 cells [3] = assay: Intracellular calcium concentration, Fura-2 calcium imaging; format: cell-based, human; conditions: 300 μM
# Protocol: Fluorescence imaging was carried out in Hank's balanced salt solution (HBSS) containing 142 mM NaCl, 5.6 mM KCl, 1 mM MgCl2, 2 mM CaCl2, 0.34 mM Na2HPO4, 0.44 mM KH2PO4, 10 mM HEPES, and 5.6 mM glucose. Cytosolic calcium concentration was measured using Fura-2 loaded cells (2 μM) as previously described (Mariot et al., 2002). The intracellular calcium concentration was derived from the ratio of the fluorescence intensities for each of the excitation wavelengths (F340/F380) and from the Grynkiewicz equation (Grynkiewicz et al., 1985).
# TSP1 [4] = assay: TSP1 protein expression in C4-2 cells (indirect immunofluorescence); format: cell-based, human; conditions: for TSP1 protein level: C4-2 cells transfected with siRNA (10 nM), 48 h after transfection
# Protocol: FIG. […]
# as §1
# C4-2 cells [5] = assay: Migration assay, modified Boyden chamber, C4-2 cells; format: cell-based, human; conditions: siRNA-transfected cells, towards fresh medium
# Protocol: The cell migration capacity can be measured in vitro using a modified Boyden Chamber. Boyden Chamber consists of two compartments separated by a permeable membrane. Cells are placed in the upper chamber and the chemotactic factors in the lower chamber. Cells migrating through the membrane are counted.
# The migration capacity was measured using a modified Boyden Chamber. Cells (40,000) were seeded in RPMI 1% FBS in the upper part of a cell culture-chamber-insert system separated from the lower chamber by a 8 μm PET membrane (BD Biosciences, Le Pont de Claix, France). RPMI 10% FBS, or conditioned medium was added in the lower compartment. Eighteen hours later, non migrating cells in the upper compartment were scrapped off using a cotton swab. Cells on the lower side of the membrane were fixed with methanol at −20° C. and stained with Hoechst 33258 (Sigma-Aldrich, Saint-Quentin Fallavier, France). Membranes were then excised, mounted on a glass side with Glycergel (DAKO) and cells counted.
# [6] = test system: TLR3, TLR7, IL6, IL12b, IFNβ, IFNγ, and IP10; assay: Induction of interferon or inflammatory cytokine genes in the spleen of nude mice, real time RT-PCR; conditions: five hours after one i.p. injection of 4 mg/kg in PBS
# Protocol: The mRNA level of the indicated genes, normalized to cyclophilin A, was quantified by real time RT-PCR in the spleen.
# All the injections were carried out with a dose of 4 mg/kg siRNA diluted in PBS. Five hours after injection, mRNAs coding several genes involved in innate immune response or in inflammation were quantified by quantitative real time RT-PCT.
# C4-2 cells [7] = assay: Cell proliferation, metabolic activity assay (WST1); format: cell-based, human; conditions: C4-2 cells transfected with siRNA
# Protocol: as §1
# C4-2 cells [8] = assay: Apoptosis, enzymatic activity of caspases 3 and 7; format: cell-based, human; conditions: for effect on apoptosis: C4-2 cells transfected with siRNA; for enzymatic activity of caspases 3 and 7 versus control: C4-2 cells, 48 h after transfection
# Protocol: FIG. 1F represents the enzymatic activity of caspases 3 and 7 measured 48 h after transfection of C4-2 cells with the TSP1a- or TSP1b-siRNA.
# [9] = C4-2 cells transfected with siRNA (10 nM), 2 days after transfection
compound,measurement,setting,value
"CC12CCC(CC1=O)C2(C)C (stereo not drawn) [camphor, reference compound]",TSP1 secretion into the culture medium,TSP1 [1],stimulated
same,TSP1 mRNA level,"TSP1 mRNA; C4-2 cells, 6 h treatment",dose dependent increase
[Cl][Co][Cl] [cobalt chloride],TRPV3 mRNA level,TRPV3 mRNA,strongly induced
same,TSP1 expression at the mRNA level,TSP1 [2],induced
same,TSP1 expression at the protein level,"TSP1 [2]; 48 h, 300 μM",induced
same,TSP1 mRNA level,"TSP1 mRNA; C4-2 cells, 48 h, 300 μM",strongly induced
same,"intracellular calcium concentration, resting level",C4-2 cells [3]; 48 h,increased over two fold
same,"intracellular calcium concentration, resting level",C4-2 cells [3]; after 30 min,not modified
"C/C=C(/C)C(=O)O[C@H]1C(C)=C2[C@H]([C@@H]1OC(=O)CCCCCCC)[C@@](C)(OC(C)=O)C[C@H](OC(=O)CCC)[C@@]1(O)[C@H]2OC(=O)[C@@]1(C)O [thapsigargin, reference compound]",TSP1 in the cytosol,"TSP1 [4]; C4-2 cells, 2 h treatment, 1 μM",rapid depletion
"CD36: siRNA targeting CD36: UACAGACAGUUUUGGAUCUdTdT / AGAUCCAAAACUGUCUGUAdTdT (chain 1 UACAGACAGUUUUGGAUCUTT; chain 2 AGAUCCAAAACUGUCUGUATT; sugars from the 5' end r19 d2, backbone not given here)",migration of C4-2 cells,C4-2 cells [5],strongly reduced
Poly (I:C) [reference compound],"induction of TLR3, TLR7, IL6, IL12b, IFNβ, IFNγ, and IP10 mRNA",[6],significant increase
"TRPV2: siRNA targeting TRPV2: UAAGAGUCAACCUCAACUAdTdT / UAGUUGAGGUUGACUCUUAdTdT (chain 1 UAAGAGUCAACCUCAACUATT; chain 2 UAGUUGAGGUUGACUCUUATT; sugars from the 5' end r19 d2, backbone not given here)",TSP1 mRNA level,TSP1 mRNA; [9],reduced
"TRPV6: siRNA targeting TRPV6: GGAAGACAGGCAAGAUCUCdTdT / GAGAUCUUGCCUGUCUUCCdTdT (chain 1 GGAAGACAGGCAAGAUCUCTT; chain 2 GAGAUCUUGCCUGUCUUCCTT; sugars from the 5' end r19 d2, backbone not given here)",TSP1 mRNA level,TSP1 mRNA; [9],reduced
"TSP1a-siRNA: Duplex CCUUGACAACAACGUGGUGdTdT / CACCACGUUGUUGUCAAGGdTdT targeting TSP1 mRNA, sequence conserved between human and mouse (sense CCUUGACAACAACGUGGUGTT; antisense CACCACGUUGUUGUCAAGGTT; sugars from the 5' end r19 d2, backbone not given here)",effect on cell proliferation,C4-2 cells [7],no effect; also recorded: without affecting
same,effect on apoptosis,C4-2 cells [8],no effect
same,enzymatic activity of caspases 3 and 7 versus control,C4-2 cells [8],not statistically different
same,TSP1 mRNA level,TSP1 mRNA; [9],significantly reduces
same,TSP1 protein level,TSP1 [4],significantly reduces
"TSP1b-siRNA: Duplex UACCCGAGACGAUUGUAUGdTdT / CAUACAAUCGUCUCGGGUAdTdT targeting specifically the human TSP1 mRNA (sense UACCCGAGACGAUUGUAUGTT; antisense CAUACAAUCGUCUCGGGUATT; sugars from the 5' end r19 d2, backbone not given here)",effect on cell proliferation,C4-2 cells [7],no effect; also recorded: without affecting
same,effect on apoptosis,C4-2 cells [8],no effect
same,enzymatic activity of caspases 3 and 7 versus control,C4-2 cells [8],not statistically different
same,TSP1 mRNA level,TSP1 mRNA; [9],significantly reduces
same,TSP1 protein level,TSP1 [4],significantly reduces
"β3: siRNA targeting β3 integrin: GGAGAAUCUGCUGAAGGAUdTdT / AUCCUUCAGCAGAUUCUCCdTdT (chain 1 GGAGAAUCUGCUGAAGGAUTT; chain 2 AUCCUUCAGCAGAUUCUCCTT; sugars from the 5' end r19 d2, backbone not given here)",migration of C4-2 cells,C4-2 cells [5],strongly reduced
